This note sets out measurements from patent publication US6410558B1, “Fungicides for the control of take-all disease of plants” (Monsanto Technology LLC, priority 1991, dated 2002).

Assay [1] relates to Ggt. Nature of the assay: In vivo Assay: control of Ggt on wheat grown in pots of Ggt-infested soil, root disease rating. On the set-up: species or system Gaeumannomyces graminis var. tritici. Particulars: 0.5 mg active ingredient per pot, 'Bergen' or 'Anza' wheat in Ggt-infested soil, after four weeks, vs untreated control; for pest or weed control at 0.5 mg/pot: Gaeumannomyces graminis, 672 h, read-out: In vivo, percent disease control. The procedure: Compounds are tested for control of Ggt on ‘Bergen’ or ‘Anza’ varieties of wheat grown in 3-inch square pots containing soil infested with Ggt. The infestation is accomplished by mixing the soil with an inoculum prepared by growing Ggt on ¼ strength potato dextrose agar (4.875 g potato dextrose agar, 5.0 g Bacto agar, 500 mL distilled, deionized water) in plates and using plugs from the plates to infest sterile oats (400 cc whole oats, 350 mL deionized water, autoclaved). After a one-month incubation period at room temperature, the oats are dried and mixed with the soil at 4% v/v. Four wheat seeds are placed on top of the soil in each pot. The test compounds are prepared as an 1:9 acetone/water v/v solution containing 0.18% Tween® 20 to provide a treatment rate of 0.5 mg active ingredient per pot, treated with 3 mL test solution per pot. Five pots are used for each treatment level and the controls, which are untreated, inoculated and non-inoculated pots. After one hour drying time, the seeds are covered with more of the appropriate soil and a layer of vermiculite. The pots are placed in a growth chamber and watered each day. After four weeks, each pot is evaluated for evidence of disease by examination of the seminal roots of each plant under a dissecting microscope. A 0 to 5 rating scale having the following meanings is used:
0=no runner hyphae or lesions present
1=runner hyphae and a few small lesions present on <10% of root system
2=runner hyphae and small lesions present on 10-25% of root system
3=runner hyphae and lesions present on 25-50% of root system
4=runner hyphae and many, large, coalescing lesions on >50% of root system
5=root system and culm completely inundated with lesions and runner hyphae
From each set of five replicates a high and low score is eliminated and a replicate mean is calculated by the average of the remaining three scores. This mean score is then compared to the untreated control score and a percent disease control is calculated.

The test system of assay [2] is Gaeumannomyces graminis var. tritici (Ggt). The assay is described as follows: In vitro Assay: mycelial growth of Ggt on minimal media agar plates containing test compound. The class given is cell-based. Particulars: dark, 19-20° C., 4 to 5 days, diameter of mycelial growth; for inhibition at 0.1 ppm / inhibition at 1 ppm / inhibition at 10 ppm: Gaeumannomyces graminis; for inhibition at 0.1 ppm / In vitro (ppm) 0.1, Percent Inhibition: 0.1 ppm in minimal media agar; for inhibition at 0.1 ppm: read-out: In vitro (ppm) 0.1, Percent Inhibition; for inhibition at 1 ppm / In vitro (ppm) 1, Percent Inhibition: 1 ppm in minimal media agar; for inhibition at 1 ppm: read-out: In vitro (ppm) 1, Percent Inhibition; for inhibition at 10 ppm / In vitro (ppm) 10, Percent Inhibition: 10 ppm in minimal media agar; for inhibition at 10 ppm: read-out: In vitro (ppm) 10, Percent Inhibition. In outline:
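Compounds added from acetone stock into minimal (Czapek Dox) agar; plates inoculated with three 4-mm Ggt plugs, incubated in dark at 19-20° C for 4 to 5 days. Colony diameter measured; Percent Inhibition = [1-((treated mm −4)/(control mm −4))]×100.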

In the case of `CCCCNC(=O)c1c(Cl)cccc1[Si](C)(C)C` [Example 20, N-Butyl-2-chloro-6-(trimethylsilyl)-benzamide], in assay [1], the pest or weed control at 0.5 mg/pot came out at 36%. Moreover, in assay [2], the inhibition at 0.1 ppm turned out to be 7%, the inhibition at 1 ppm came out at 14% and the inhibition at 10 ppm was 61%.
Take `CCNC(=O)c1sc([Si](C)(C)C)cc1[Si](C)(C)C` [Example 249, N-Ethyl-3,5-bis(trimethylsilyl)-2-thiophenecarboxamide]: the pest or weed control at 0.5 mg/pot in assay [1] stood at 60%. In addition, in assay [2], the inhibition at 0.1 ppm amounted to 17%, the inhibition at 1 ppm was determined as 48% and the inhibition at 10 ppm is 100%.
Regarding `CCNC(=O)c1c(Cl)ccc(Br)c1[Si](C)(C)C` [Example 232, 3-Bromo-6-chloro-N-ethyl-2-(trimethylsilyl)benzamide], the pest or weed control at 0.5 mg/pot in assay [1] is 78%. For the same molecule, in assay [2], the inhibition at 0.1 ppm came out at 92%, the inhibition at 1 ppm came out at 97% and the inhibition at 10 ppm worked out at 95%.
`CCN(CC)C(=O)c1c(Cl)ccc(C)c1[Si](C)(C)C` [Example 71, N,N-Diethyl-6-chloro-3-methyl-2-(trimethylsilyl)benzamide]: the pest or weed control at 0.5 mg/pot in assay [1] was determined as 50%. In assay [2], the inhibition at 0.1 ppm turned out to be 14%, the inhibition at 1 ppm is 8% and the inhibition at 10 ppm was less than 0%.
In the same order, the values of `Cc1ccccc1NC(=O)c1c(Cl)cccc1[Si](C)(C)C` [Example 33, 2-Chloro-N-(2-methylphenyl)-6-(trimethylsilyl)benzamide] are 12%, less than 0%, 44% and 100%.
Turning to `CCNC(=O)c1c([Si](C)(C)C)ccc(C(F)F)c1Cl` [Example 224, 2-Chloro-3-(difluoromethyl)-N-ethyl-6-(trimethylsilyl)benzamide], in assay [1], the pest or weed control at 0.5 mg/pot turned out to be 21%. Besides, in assay [2], the inhibition at 0.1 ppm is less than 0%, the inhibition at 1 ppm is 27% and the inhibition at 10 ppm was 93%.
`CN1CCN(C(=O)c2c(Cl)cccc2[Si](C)(C)C)CC1` [Example 133, N-[2-Chloro-6-(trimethylsilyl)benzoyl]-4-methylpiperazine]: the pest or weed control at 0.5 mg/pot in assay [1] was less than 0%. In addition, in assay [2], the inhibition at 0.1 ppm was found to be 13%, the inhibition at 1 ppm is 3% and the inhibition at 10 ppm amounted to 18%.
With `C=C[Si](C)(C)c1cccc(Cl)c1C(=O)NCC` [Example 87, N-Ethyl-2-chloro-6-(ethenyldimethylsilyl)benzamide], in assay [1], the pest or weed control at 0.5 mg/pot turned out to be 96%. In addition, in assay [2], the inhibition at 0.1 ppm was found to be 93%, the inhibition at 1 ppm is 100% and the inhibition at 10 ppm was 100%.
In the case of `CCN(CC)C(=O)c1c(C)ccc(F)c1[Si](C)(C)C` [Example 1, N,N-Diethyl-3-fluoro-6-methyl-2-(trimethylsilyl)benzamide], in assay [1], the pest or weed control at 0.5 mg/pot is 91%. For the same molecule, in assay [2], the inhibition at 0.1 ppm stood at 6%, the inhibition at 1 ppm is 53% and the inhibition at 10 ppm amounted to 74%.
As to `C[Si](C)(C)c1cccc(Cl)c1C(=O)NCC1CC1` [Example 150, 2-Chloro-N-(cyclopropylmethyl)-6-(trimethylsilyl)benzamide], the pest or weed control at 0.5 mg/pot in assay [1] stood at 96%. Moreover, in assay [2], the inhibition at 0.1 ppm stood at 34%, the inhibition at 1 ppm was 74% and the inhibition at 10 ppm was determined as 83%.
Turning to “2-N,N-dipropyl-6-(trimethylsilyl)benzamide [Example 14]”, the “In vivo, percent disease control” value in assay [1] is 92%. In assay [2], the “In vitro (ppm) 0.1, Percent Inhibition” value is recorded as 7%; the “In vitro (ppm) 1, Percent Inhibition” value is 40%; the “In vitro (ppm) 10, Percent Inhibition” value is given as 79%.
As for `CCNC(=O)c1c(Cl)cccc1[Si](C)(C)CC` [Example 212, 2-Chloro-N-ethyl-6-(ethyldimethylsilyl)benzamide], in assay [1], the pest or weed control at 0.5 mg/pot is 96%. Moreover, in assay [2], the inhibition at 0.1 ppm worked out at 77%, the inhibition at 1 ppm was determined as 54% and the inhibition at 10 ppm was determined as 90%.
Consider `CCN(CC)C(=O)c1c(Cl)cccc1[Si](C)(C)C` [Example 39, 2-Chloro-N,N-diethyl-6-(trimethylsilyl)benzamide], for which the pest or weed control at 0.5 mg/pot in assay [1] amounted to 99%. Moreover, in assay [2], the inhibition at 0.1 ppm was 49%, the inhibition at 1 ppm is 82% and the inhibition at 10 ppm worked out at 92%.
As to `C=CCNC(=O)c1c(Cl)cccc1[Si](C)(C)C` [Example 106, 2-Chloro-N-2-propenyl-6-(trimethylsilyl)benzamide], the pest or weed control at 0.5 mg/pot in assay [1] turned out to be 100%. Further, in assay [2], the inhibition at 0.1 ppm was 95%, the inhibition at 1 ppm was 95% and the inhibition at 10 ppm was found to be 97%.
`CCN(CC)C(=O)c1c(Cl)cccc1[Si](CC)(CC)CC` [Example 66, N,N-Diethyl-2-chloro-6-(triethylsilyl)benzamide]: the pest or weed control at 0.5 mg/pot in assay [1] stood at 3%. Besides, in assay [2], the inhibition at 0.1 ppm is less than 0%, the inhibition at 1 ppm is less than 0% and the inhibition at 10 ppm was determined as 58%.
Take `CCNC(=O)c1cc([Si](C)(C)C)sc1[Si](C)(C)C` [Example 269, N-Ethyl-2,5-bis(trimethylsilyl)-3-thiophenecarboxamide]: the pest or weed control at 0.5 mg/pot in assay [1] amounted to 4%. For the same molecule, in assay [2], the inhibition at 0.1 ppm is less than 0%, the inhibition at 1 ppm amounted to 91% and the inhibition at 10 ppm was found to be 100%.
`CN(C)NC(=O)c1c(Cl)cccc1[Si](C)(C)C` [Example 99, 2-Chloro-6-(trimethylsilyl)-2,2-dimethylhydrazide-benzoic acid]: in assay [1], the “In vivo, percent disease control” value is on record as 59%. Also, in assay [2], the “In vitro (ppm) 0.1, Percent Inhibition” value stood at 5%; the “In vitro (ppm) 1, Percent Inhibition” value is on record as 72%; the “In vitro (ppm) 10, Percent Inhibition” value worked out at 95%.
In the case of `CCN(C(=O)OC(C)(C)C)C(=O)c1c(Cl)cccc1[Si](C)(C)C` [Example 211, [2-Chloro-6-(trimethylsilyl)benzoyl]ethylcarbamic acid, 1,1-dimethylethyl ester], in assay [1], the pest or weed control at 0.5 mg/pot worked out at 96%. Moreover, in assay [2], the inhibition at 0.1 ppm is less than 0%, the inhibition at 1 ppm amounted to 82% and the inhibition at 10 ppm turned out to be 90%.
As to `CCN(CC)C(=S)c1cccc(F)c1[Si](C)(C)C` [Example 74, N,N-Diethyl-3-fluoro-2-(trimethylsilyl)thiobenzamide], the pest or weed control at 0.5 mg/pot in assay [1] was found to be 47%. In assay [2], the inhibition at 0.1 ppm is 7%, the inhibition at 1 ppm is 31% and the inhibition at 10 ppm was determined as 93%.
For `C[Si](C)(C)c1cccc(Cl)c1C(=O)N1CCCCC1` [Example 134, N-[2-Chloro-6-(trimethylsilyl)benzoyl]-piperidine] the same measures were less than 0%, less than 0%, 3% and 39%.
In the case of `CCN(CC)C(=O)c1c(F)ccc(F)c1[Si](C)(C)C` [Example 56, N,N-Diethyl-3,6-difluoro-2-(trimethylsilyl)benzamide], the pest or weed control at 0.5 mg/pot in assay [1] worked out at 91%. Further, in assay [2], the inhibition at 0.1 ppm is 10%, the inhibition at 1 ppm was determined as 31% and the inhibition at 10 ppm worked out at 74%.
In the same order, the values of `CCN(CC)C(=O)c1ccccc1[Si](C)(C)C` [Example 2, N,N-Diethyl-2-(trimethylsilyl)benzamide] are 74%, 14%, 36% and 72%.
On to `CCOc1ccccc1NC(=O)c1c(Cl)cccc1[Si](C)(C)C` [Example 157, 2-Chloro-N-(2-ethoxyphenyl)-6-(trimethylsilyl)benzamide], for which the pest or weed control at 0.5 mg/pot in assay [1] was 0%. Besides, in assay [2], the inhibition at 0.1 ppm is 7%, the inhibition at 1 ppm was found to be 23% and the inhibition at 10 ppm is 91%.

Broadly, the inhibition is the change of the read-out against control, counted positive when it falls.
